Consider nine compounds from US7449476B2, “Tetrahydrocarboline antiviral agents” (priority 2004, dated 2008).

pEC50: −log10 of the molar value.

In general, pEC50 refers to −log10 of the EC50, conventionally taken in molar units. Higher therefore signals a low EC50.

The test system of the experiment is HIV-1. Briefly: Single-round infectious HIV-1 luciferase reporter virus infection of HeLa CD4 cells. The format is cell-based. Conditions: Human immunodeficiency virus 1, HeLa, 72 h. The method, then:
Cells: (virus production) human embryonic kidney cell line, 293, was propagated in Dulbecco's Modified Eagle Medium (Invitrogen, Carlsbad, Calif.) containing 10% fetal Bovine serum (FBS, Sigma, St. Louis, Mo.); (virus infection) human epithelial cell line, HeLa, expressing the HIV-1 receptor CD4 was propagated in Dulbecco's Modified Eagle Medium (Invitrogen, Carlsbad, Calif.) containing 10% fetal Bovine serum (FBS, Sigma, St. Louis, Mo.) and supplemented with 0.2 mg/mL Geneticin (Invitrogen, Carlsbad, Calif.).
Virus: single-round infectious reporter virus was produced by co-transfecting human embryonic kidney 293 cells with an HIV-1 envelope DNA expression vector and a proviral cDNA containing an envelope deletion mutation and the luciferase reporter gene inserted in place of HIV-1 nef sequences. Transfections were performed using lipofectAMINE PLUS reagent as described by the manufacturer (Invitrogen, Carlsbad, Calif.).
Experiment: HeLa CD4 cells were plated in 96 well plates at a cell density of 1×10^4 cells per well in 100 μl Dulbecco's Modified Eagle Medium containing 10% fetal Bovine serum and incubated overnight. Compound was added in a 2 μl dimethylsulfoxide solution, so that the final assay concentration would be ≦10 μM. Single-round infectious reporter virus (100 μL) in Dulbecco's Modified Eagle Medium was then added to the plated cells and compound at an approximate multiplicity of infection (MOI) of 0.01, resulting in a final volume of 200 μl per well. Virally-infected cells were incubated at 37 degrees Celsius, in a CO2 incubator, and harvested 72 h after infection. Viral infection was monitored by measuring luciferase expression from viral DNA in the infected cells using a luciferase reporter gene assay kit, as described by the manufacturer (Roche Molecular Biochemicals, Indianapolis, Ind.). Infected cell supernatants were removed and 50 μl of lysis buffer was added per well. After 15 minutes, 50 μl of freshly-reconstituted luciferase assay reagent was added per well. Luciferase activity was then quantified by measuring luminescence using a Wallac microbeta luminescence reader.
The percent inhibition for each compound was calculated by quantifying the level of luciferase expression in cells infected in the presence of each compound as a percentage of that observed for cells infected in the absence of compound and subtracting such a determined value from 100. The effective concentration for fifty percent inhibition (EC50) was calculated with Microsoft Excel Xlfit curve fitting software. For each compound, curves were generated from percent inhibition calculated at 10 different concentrations by using a four paramenter logistic model (model 205).
(In a reporter assay the amount or activity of a reporter protein is the signal.)
`COc1cnc(-n2cnc(C)n2)c2[nH]cc(C(=O)C(=O)N3CCc4c(c5cc(F)ccc5n4-c4ccccc4)C3)c12` [Example 8, 1-(8-Fluoro-5-phenyl-1,3,4,5-tetrahydro-pyrido[4,3-b]indol-2-yl)-2-[4-methoxy-7-(3-methyl-1,2,4-triazol-1-yl)-6-azaindol-3-yl]-ethane-1,2-dione] showed a pEC50 of over 6.00.
In the case of `COc1ncc(OC)c2c(C(=O)C(=O)N3CCc4[nH]c5ccc(C(F)(F)F)cc5c4C3)c[nH]c12` [Example 5, 1-(8-Trifluoromethyl-1,3,4,5-tetrahydro-pyrido[4,3-b]indol-2-yl)-2-(4,7-dimethoxy-6-azaindol-3-yl)-ethane-1,2-dione] it was 5.30 to 6.00.
In the case of `COc1ncc(OC)c2c(C(=O)C(=O)N3CCc4[nH]c5ccc(F)cc5c4C3)c[nH]c12` [Example 3, 1-(8-Fluoro-1,3,4,5-tetrahydro-pyrido[4,3-b]indol-2-yl)-2-(4,7-dimethoxy-6-azaindol-3-yl)-ethane-1,2-dione] it was under 5.30.
Under `COc1cnc(-n2ncnc2C)c2[nH]cc(C(=O)C(=O)N3CCc4c(c5ccccc5n4-c4ccccc4)C3)c12` [Example 7, 1-(5-Phenyl-1,3,4,5-tetrahydro-pyrido[4,3-b]indol-2-yl)-2-[4-methoxy-7-(5-methyl-1,2,4-triazol-1-yl)-6-azaindol-3-yl]-ethane-1,2-dione] stands over 6.00.
The compound `COc1cnc(-n2cnc(C)n2)c2[nH]cc(C(=O)C(=O)N3CCc4c(c5ccccc5n4-c4ccccc4)C3)c12` [Example 6, 1-(5-Phenyl-1,3,4,5-tetrahydro-pyrido[4,3-b]indol-2-yl)-2-[4-methoxy-7-(3-methyl-1,2,4-triazol-1-yl)-6-azaindol-3-yl]-ethane-1,2-dione] had a pEC50 of over 6.00.
`COc1ncc(OC)c2c(C(=O)C(=O)N3CCc4c(c5cc(F)ccc5n4C)C3)c[nH]c12` [Example 4, 1-(8-Fluoro-5-methyl-1,3,4,5-tetrahydro-pyrido[4,3-b]indol-2-yl)-2-(4,7-dimethoxy-6-azaindol-3-yl)-ethane-1,2-dione] gave a negative-log EC50 (pEC50) of over 6.00.
With `COc1cnc(-n2ccnn2)c2[nH]cc(C(=O)C(=O)N3CCc4c(c5cc(F)ccc5n4-c4ccccc4)C3)c12` [Example 9, 1-(8-Fluoro-5-phenyl-1,3,4,5-tetrahydro-pyrido[4,3-b]indol-2-yl)-2-[4-methoxy-7-(1,2,3-triazol-1-yl)-6-azaindol-3-yl]-ethane-1,2-dione], the pEC50 is over 6.00.
As for `COc1ncc(OC)c2c(C(=O)C(=O)N3CCc4[nH]c5ccccc5c4C3)c[nH]c12` [Example 2, 1-(1,3,4,5-Tetrahydro-pyrido[4,3-b]indol-2-yl)-2-(4,7-dimethoxy-6-azaindol-3-yl)-ethane-1,2-dione], the pEC50 is under 5.30.
Regarding `COc1ncc(OC)c2c(C(=O)C(=O)N3CCc4c(c5ccccc5n4-c4ccccc4)C3)c[nH]c12` [Example 1, 1-(5-Phenyl-1,3,4,5-tetrahydro-pyrido[4,3-b]indol-2-yl)-2-(4,7-dimethoxy-6-azaindol-3-yl)-ethane-1,2-dione], the pEC50 is over 6.00.
